Consider 32 compounds from patent US9469615B2, “Quinoxalines and AZA-quinoxalines as CRTH2 receptor modulators” (Merck Sharp & Dohme Corp., priority 2010, dated 2016).

The experiment addresses T1, hCRTH2 (Homo sapiens, UniProt Q9Y5Y4).
T1 construct: expressed in transfected cells; host or cells: HEK (human embryonic kidney) cells expressing hCRTH2; membrane preparation
T1 sequence (Q9Y5Y4 1-395): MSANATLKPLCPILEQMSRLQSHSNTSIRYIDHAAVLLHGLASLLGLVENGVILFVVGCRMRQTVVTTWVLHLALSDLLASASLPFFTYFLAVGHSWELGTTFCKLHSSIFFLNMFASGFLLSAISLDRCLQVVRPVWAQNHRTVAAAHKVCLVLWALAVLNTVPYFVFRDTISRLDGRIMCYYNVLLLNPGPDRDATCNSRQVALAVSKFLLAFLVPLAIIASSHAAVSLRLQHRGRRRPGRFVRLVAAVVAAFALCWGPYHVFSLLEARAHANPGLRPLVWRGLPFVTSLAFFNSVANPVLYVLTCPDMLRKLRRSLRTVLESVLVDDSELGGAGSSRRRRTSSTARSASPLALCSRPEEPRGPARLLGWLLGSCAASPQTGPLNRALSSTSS
Put plainly: Radioligand binding assay ([3H]PGD2 competition, HEK-hCRTH2 membranes). Particulars: [3H]PGD2 binding, rated A-E (Table A). A digest of the protocol: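 Displacement of 3.0 nM [3H]PGD2 from human CRTH2 expressed in HEK membranes was measured at room temperature over 60 min. Unlabelled PGD2 at 10 μM gave non-specific binding.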
As usually defined, the Ki is a dissociation constant, usually derived from enzyme kinetics or from competition with a known ligand. Take `O=C(O)CCCCc1nc2cc(C(=O)NCc3ccc(OC(F)(F)F)cc3)ccc2nc1-c1ccc(F)cc1` [compound 107, 3-(4-fluorophenyl)-7-[[[[4-(trifluoromethoxy)phenyl]methyl]amino]carbonyl]-2-quinoxalinepentanoic acid]: the Ki fell in the range of 2.1 to 20 nM. With `O=C(O)CCCCc1nc2cc(C(=O)NCc3cc(Cl)cc(Cl)c3)ccc2nc1-c1ccc(F)cc1` [compound 108, 7-[[[(3,5-dichlorophenyl)methyl]amino]carbonyl]-3-(4-fluorophenyl)-2-quinoxalinepentanoic acid], the Ki lay within 2.1 to 20 nM. For the compound `O=C(O)CCCCc1nc2cc(C(=O)NCc3ccc(F)cc3)ccc2nc1-c1ccc(F)cc1` [compound 109, 3-(4-fluorophenyl)-7-[[[(4-fluorophenyl)methyl]amino]carbonyl]-2-quinoxalinepentanoic acid], the Ki was in the range of 2.1 to 20 nM. As for `C[C@@H](NC(=O)c1ccc2nc(-c3ccc(F)cc3)c(CCCCC(=O)O)nc2c1)c1ccc(F)cc1` [compound 110, 3-(4-fluorophenyl)-7-[[[1(R)-(4-fluorophenyl)ethyl]amino]carbonyl]-2-quinoxalinepentanoic acid], the inhibition constant Ki lay within 2.1 to 20 nM. To `C[C@H](NC(=O)c1ccc2nc(-c3ccc(F)cc3)c(CCCCC(=O)O)nc2c1)c1ccc(F)cc1` [compound 111, 3-(4-fluorophenyl)-7-[[[1(S)-(4-fluorophenyl)ethyl]amino]carbonyl]-2-quinoxalinepentanoic acid] belongs 2.1 to 20 nM; to `O=C(O)CCCCc1nc2cc(C(=O)NCc3ccc(C(F)(F)F)cc3)ccc2nc1-c1ccc(F)cc1` [compound 112], 2.1 to 20 nM; to `COCCn1c(=O)n(C2CCN(C(=O)c3ccc4nc(-c5ccccc5)c(CCCCC(=O)O)nc4c3)CC2)c2ccccc21` [compound 113, 7-[[4-[2,3-dihydro-3-(2-methoxyethyl)-2-oxo-1H-benzimidazol-1-yl]-1 - piperidinyl]carbonyl]-3-phenyl-2-quinoxalinepentanoic acid], 2.1 to 20 nM. To `CO/N=C(/c1ccccn1)C1CCN(C(=O)c2ccc3nc(-c4ccccc4)c(CCCCC(=O)O)nc3c2)CC1` [compound 114, 7-[[4-[(E)-(methoxyimino)-2-pyridinylmethyl]-1-piperidinyl]carbonyl]-3-phenyl-2-quinoxalinepentanoic acid] belongs 2.1 to 20 nM; to `O=C(O)CCCCc1nc2cc(C(=O)N3CC=C(c4ccccc4)CC3)ccc2nc1-c1ccccc1` [compound 116, 7-(4-phenyl-1,2,3,6-tetrahydropyridine-1-carbonyl)-3-phenyl-2-quinoxalinepentanoic acid], 2.1 to 20 nM. As to `O=C(O)CCCCc1nc2cc(C(=O)N3CCC(n4c(=O)[nH]c5ccccc54)CC3)ccc2nc1-c1ccccc1` [compound 117, 7-[[4-(2,3-dihydro-2-oxo-1H-benzimidazol-1-yl)-1-piperidinyl]carbonyl]-3-phenyl-2-quinoxalinepentanoic acid], the Ki lay in the range of 2.1 to 20 nM. `CS(=O)(=O)N1CC2(CCN(C(=O)c3ccc4nc(-c5ccccc5)c(CCCCC(=O)O)nc4c3)CC2)c2ccccc21` [compound 118, 7-[[1,2-dihydro-1-(methylsulfonyl)spiro[3H-indole-3,4′-piperidin]-1′-yl]carbonyl]-3-phenyl-2-quinoxalinepentanoic acid] gave a Ki of 2.1 to 20 nM. Turning to `CN1C(=O)C2(CCN(C(=O)c3ccc4nc(-c5ccccc5)c(CCCCC(=O)O)nc4c3)CC2)c2ccccc21` [compound 119], the Ki lay in the range of 2.1 to 20 nM. Regarding `O=C(O)CCCCc1nc2cc(C(=O)N3CCC4(CC3)COc3ccccc34)ccc2nc1-c1ccccc1` [compound 120, 3-phenyl-7-(spiro[benzofuran-3(2H),4′-piperidin]-1′-ylcarbonyl)-2-quinoxalinepentanoic acid], the Ki was in the range of 2.1 to 20 nM. Regarding `O=C(O)CCCCc1nc2cc(C(=O)N3CCC4(CCc5ccccc54)CC3)ccc2nc1-c1ccccc1` [compound 121, 7-[(2,3-dihydrospiro [1H-indene-1,4′-piperidin]-1′-yl)carbonyl]-3-phenyl-2-quinoxalinepentanoic acid], the Ki lay within 2.1 to 20 nM. To `CN1CC2(CCN(C(=O)c3ccc4nc(-c5ccccc5)c(CCCCC(=O)O)nc4c3)CC2)c2ccccc21` [compound 122, 7-[(1,2-dihydro-1-methylspiro[3H-indole-3,4′-piperidin]-1′-yl)carbonyl]-3-phenyl-2-quinoxalinepentanoic acid] belongs 2.1 to 20 nM; to `CC(=O)N1CC2(CCN(C(=O)c3ccc4nc(-c5ccccc5)c(CCCCC(=O)O)nc4c3)CC2)c2ccccc21` [compound 123, 7-[(1-acetyl-1,2-dihydrospiro[3H-indole-3,4′-piperidin]-1′-yl)carbonyl]-3-phenyl-2-quinoxalinepentanoic acid], 2.1 to 20 nM. Regarding `N#CC1(c2ccccc2)CCN(C(=O)c2ccc3nc(-c4ccccc4)c(CCCCC(=O)O)nc3c2)CC1` [compound 124, 7-[(4-cyano-4-phenyl-1-piperidinyl)carbonyl]-3-phenyl-2-quinolaxinepentanoic acid], the Ki lay within 2.1 to 20 nM. The same measure for `O=C(O)CCCCc1nc2cc(C(=O)N3CCC4(CC3)C(=O)NCN4c3ccccc3)ccc2nc1-c1ccccc1` [compound 125, 7-[(4-oxo-l-phenyl-1,3,8-triazaspiro[4.5]dec-8-yl)carbonyl]-3-phenyl-2-quinoxalinepentanoic acid]: 2.1 to 20 nM. The same measure for `O=C(O)CCCCc1nc2cc(C(=O)N3CCC4(CC3)C(=O)NCN4c3ccccc3)ccc2nc1-c1ccc(F)cc1` [compound 126, 3-(4-fluorophenyl)-7-[(4-oxo-1-phenyl-1,3,8-triazaspiro[4.5]dec-8-yl)carbonyl]-2-quinoxalinepentanoic acid]: 2.1 to 20 nM; for `O=C(O)CCCCc1nc2cc(C(=O)N3CC=C(c4ccccc4)CC3)ccc2nc1-c1ccc(F)cc1` [compound 127, 5-(3-(4-fluorophenyl)-7-(4-phenyl-1,2,3,6-tetrahydropyridine-1-carbonyl)quinoxalin-2-yl)pentanoic acid]: 2.1 to 20 nM. `N#CC1(c2ccccc2)CCN(C(=O)c2ccc3nc(-c4ccc(F)cc4)c(CCCCC(=O)O)nc3c2)CC1` [compound 128] gave a Ki of 2.1 to 20 nM. In the case of `O=C(O)CCCCc1nc2cc(C(=O)NCc3ccccc3)ccc2nc1-c1ccc(F)cc1` [compound 129, 3-(4-fluorophenyl)-7-[[(phenylmethyl)amino]carbonyl]-2-quinoxalinepentanoic acid], the Ki lay in the range of 0.1 to 2 nM. To `C[C@@H](NC(=O)c1ccc2nc(-c3ccc(F)cc3)c(CCCCC(=O)O)nc2c1)c1ccc(Cl)cc1` [compound 130, 7-[[[1(R)-(4-chlorophenyl)ethyl]amino]carbonyl]-3-(4-fluorophenyl)-2-quinoxalinepentanoic acid] belongs 0.1 to 2 nM.

As for `C[C@H](NC(=O)c1ccc2nc(-c3ccc(F)cc3)c(CCCCC(=O)O)nc2c1)c1ccc(Cl)cc1` [compound 131, 7-[[[1(S)-(4-chlorophenyl)ethyl]amino]carbonyl]-3-(4-fluorophenyl)-2-quinoxalinepentanoic acid], the Ki was in the range of 2.1 to 20 nM. The compound `C[C@@H](NC(=O)c1ccc2nc(-c3ccc(F)cc3)c(CCCCC(=O)O)nc2c1)c1ccccc1` [compound 132, 3-(4-fluorophenyl)-7-[[(1(R)-phenylethyl)amino]carbonyl]-2-quinoxalinepentanoic acid] registered a Ki of 2.1 to 20 nM. As to `C[C@H](NC(=O)c1ccc2nc(-c3ccc(F)cc3)c(CCCCC(=O)O)nc2c1)c1ccccc1` [compound 133, 3-(4-fluorophenyl)-7-[[(1(S)-phenylethyl)amino]carbonyl]-2-quinoxalinepentanoic acid], the Ki lay in the range of 2.1 to 20 nM. Take `O=C(O)CCCCc1nc2cc(C(=O)N3CCC(O)(c4ccc(Cl)cc4)CC3)ccc2nc1-c1ccc(F)cc1` [compound 134, 7-[[4-(4-chlorophenyl)-4-hydroxy-1-piperidinyl]carbonyl]-3-(4-fluorophenyl)-2-quinoxalinepentanoic acid]: the Ki is 0.1 to 2 nM. `O=C(O)CCCCc1nc2cc(C(=O)N3CCC(c4ccc(Cl)cc4)CC3)ccc2nc1-c1ccc(F)cc1` [compound 135] came in with a Ki of 2.1 to 20 nM. The compound `O=C(O)CCCCc1nc2cc(C(=O)N3CC=C(c4ccc(Cl)cc4)CC3)ccc2nc1-c1ccc(F)cc1` [compound 136, 7-[[4-(4-chlorophenyl)-3,6-dihydro-1(2H)-pyridinyl]carbonyl]-3-(4-fluorophenyl)-2-quinoxalinepentanoic acid] came in with a Ki of 2.1 to 20 nM. To `O=C(O)CCCCc1nc2cc(C(=O)N[C@H](c3ccccc3)C(F)(F)F)ccc2nc1-c1ccc(F)cc1` [compound 137, 3-(4-fluorophenyl)-7-[[[2,2,2-2-trifluoro-1(R)-phenylethyl)amino]carbonyl]-2-quinoxalinepentanoic acid] belongs 20.1 to 200 nM; to `O=C(O)CCCCc1nc2cc(C(=O)N[C@@H](c3ccc(F)cc3)C(F)(F)F)ccc2nc1-c1ccc(F)cc1` [compound 138, 3-(4-fluorophenyl)-7-[[[2,2,2-trifluoro-1(S)-(4-fluorophenyl)ethyl]amino]carbonyl]-2-quinoxalinepentanoic acid], 2.1 to 20 nM.

`O=C(O)CCCCc1nc2cc(C(=O)N[C@H](c3ccc(F)cc3)C(F)(F)F)ccc2nc1-c1ccc(F)cc1` [compound 139, 3-(4-fluorophenyl)-7-[[[(1R)-2,2,2-trifluoro-1-(4-fluorophenyl)ethyl]amino]carbonyl]-2-quinoxalinepentanoic acid] gave a Ki of 2.1 to 20 nM.
